Measurements from patent publication US7728015B2, “Compositions for weight management” (Mor Research Applications Ltd., priority 2004, dated 2010).
Where two headings read alike, the source gives them in different places.

Columns and labels:
[1] = Blood metabolite levels of a healthy overweight person before and after one month of betahistine; assay type: in vivo, human; design: Total cholesterol / HDL-cholesterol / LDL-cholesterol / Triglycerides: unit not given here
[2] = target: H3-receptor (Homo sapiens, UniProt Q9Y5N1); conditions: receptor binding studies; cited from earlier work
Chain of H3-receptor (Q9Y5N1 whole entry): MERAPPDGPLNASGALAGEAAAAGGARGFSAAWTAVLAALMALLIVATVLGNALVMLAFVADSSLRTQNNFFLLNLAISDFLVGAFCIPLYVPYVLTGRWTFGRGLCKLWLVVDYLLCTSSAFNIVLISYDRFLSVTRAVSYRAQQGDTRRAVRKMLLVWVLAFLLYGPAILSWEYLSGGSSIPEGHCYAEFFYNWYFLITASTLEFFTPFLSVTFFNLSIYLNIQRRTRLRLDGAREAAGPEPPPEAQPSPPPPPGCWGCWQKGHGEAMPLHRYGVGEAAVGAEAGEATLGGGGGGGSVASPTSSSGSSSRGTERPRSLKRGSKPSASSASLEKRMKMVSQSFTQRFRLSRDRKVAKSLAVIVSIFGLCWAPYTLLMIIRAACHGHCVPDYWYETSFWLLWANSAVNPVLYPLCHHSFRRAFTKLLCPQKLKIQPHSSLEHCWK

[3] = in vivo, cited from earlier work
[4] = cited from earlier work
[5] = Randomized placebo controlled double-blinded study of oral betahistine on food intake, caloric intake and weight in obese persons; assay type: in vivo, human
Procedure: Weight, caloric intake (24 hour recall) and appetite during the day (VAS, Visual Analogue Score) were obtained on day 0, 14 and 28 of the study. Subjects were instructed to eat according to their appetite without limitations. Statistical significance was assessed with t-test. BMI stands for body mass index.

[6] = pygmy goats, high doses intraperitoneally; cited from earlier work
[7] = rats, cited from earlier work
[8] = rats, cited from earlier work; remark: listed apart in the source
[9] = Day 30, betahistine 16 mg twice daily, blood test
[10] = betahistine 16 mg orally twice a day, FIG. 5

Compound: CNCCc1ccccn1 [betahistine, 2-[2-(methylamino)ethyl]pyridine]
- Fructoseamine [1, 9]: 202
- HDL-cholesterol [1, 9]: 58
- LDL-cholesterol [1, 9]: 84
- Total cholesterol [1, 9]: 155
- Triglycerides [1, 9]: 62
- Fructoseamine Change ([1]; Day 30 vs Day 0): +4%
- HDL-cholesterol Change ([1]; Day 30 vs Day 0): +7%
- LDL-cholesterol Change ([1]; Day 30 vs Day 0): −15%
- Total cholesterol Change ([1]; Day 30 vs Day 0): −7%
- Triglycerides Change ([1]; Day 30 vs Day 0): −10%
- H3-receptor activity [2]: potent H3-receptor antagonist
- half-life [3]: about 3.5 hours
- half-life ([3]; listed as Betahistine): 3.5 h
- weight gain from week 2 to the end of the study ([4]; betahistine and olanzapine for 6 weeks, three patients): no weight gain was observed
- mean weight gain compared with olanzapine/placebo-treated patients ([4]; betahistine/olanzapine-treated patients, 6 weeks): lower
- adverse event reported by a subject ([5]; Subject No. 5, day 5, betahistine 16 mg twice a day): food aversion that did not allow them to consume any food
- reduction in carbohydrate consumption [5, 10]: 6%
- reduction in fat consumption [5, 10]: 49%
- reduction in protein consumption [5, 10]: 35%
- total caloric intake ([5]; betahistine 16 mg orally twice a day, day 14 of treatment): 80 percents of the pre-treatment level
- total caloric intake ([5]; betahistine 16 mg orally twice a day, day 28 of treatment): 68 percents of the pre-treatment level
- subjects who lost more than 1 kg during the study period ([5]; treatment group, 28 day study, no food restriction): Four out of seven
- food intake [6]: decreased food intake
- water intake [6]: increased water intake
- food intake ([7]; given intragastrically): this effect was not seen
- food intake ([7]; given intraperitoneally): decreased food intake

Compound: Cc1nc(N)nc(N)c1-c1ccc(Cl)c(Cl)c1 [metoprine]
- half-life [3]: 216 h
- intakes of carbohydrates or protein ([8]; FIG. 2): no marked effect
- daily energy intake and ingestion of fat ([8]; intraperitoneal injection): suppressed daily energy intake and ingestion of fat
